Laboratory results published in ChEMBL document CHEMBL1909046, “DrugMatrix in vitro pharmacology data”.

Key:
[1] = biological target: Kappa-type opioid receptor (Homo sapiens, UniProt P41145); experiment: DRUGMATRIX: Opiate kappa (OP2, KOP) radioligand binding (ligand: [3H] Diprenorphine); format: cell membranes, HEK293, Membrane; settings: Not Active = under 50% inhibition at 10 µM
[2] = biological target: Beta-2 adrenergic receptor (Homo sapiens, UniProt P07550); experiment: DRUGMATRIX: Adrenergic beta2 radioligand binding (ligand: [3H] CGP-12177); format: cell membranes, CHO, Membrane; settings: cho; Not Active = under 50% inhibition at 10 µM
[3] = DRUGMATRIX: Platelet-Derived Growth Factor (PDGF) radioligand binding (ligand: [125I] PDGF); format: cell-based; settings: nih3t3; Not Active = under 50% inhibition at 10 µM
[4] = DRUGMATRIX: GABAA, Chloride Channel, TBOB radioligand binding (ligand: [3H] TBOB); format: cell membranes, Rattus norvegicus, Wistar, Cerebral cortex, Membrane; settings: Not Active = under 50% inhibition at 10 µM
[5] = DRUGMATRIX: Potassium Channel [KATP] radioligand binding (ligand: [3H] Glyburide); format: cell membranes, Membrane; settings: hit-t15; Not Active = under 50% inhibition at 10 µM
Thromboxane-A synthase = biological target: T1, Thromboxane-A synthase (Homo sapiens, UniProt P24557); experiment: biochemical; format: tissue-based, Platelet;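 also: enzyme inhibition assay with PGH2 supplied as substrate; in other assays of this panel Not Active means under 50% inhibition at 10 µM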
T1 sequence (P24557 whole entry): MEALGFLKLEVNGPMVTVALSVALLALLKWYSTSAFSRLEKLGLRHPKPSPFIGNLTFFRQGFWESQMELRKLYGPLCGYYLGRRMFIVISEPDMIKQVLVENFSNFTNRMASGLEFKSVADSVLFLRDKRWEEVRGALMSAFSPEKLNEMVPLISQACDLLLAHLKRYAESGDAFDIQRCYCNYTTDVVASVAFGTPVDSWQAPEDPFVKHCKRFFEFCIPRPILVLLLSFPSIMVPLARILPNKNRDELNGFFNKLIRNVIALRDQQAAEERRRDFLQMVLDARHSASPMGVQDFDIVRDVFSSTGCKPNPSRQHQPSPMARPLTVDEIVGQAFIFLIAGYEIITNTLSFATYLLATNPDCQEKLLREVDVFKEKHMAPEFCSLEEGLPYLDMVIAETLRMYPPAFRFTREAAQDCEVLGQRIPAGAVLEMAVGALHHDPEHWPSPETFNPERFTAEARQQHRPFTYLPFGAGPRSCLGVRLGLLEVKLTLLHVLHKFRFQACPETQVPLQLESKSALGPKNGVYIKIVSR

[6] = DRUGMATRIX: Glutamate, NMDA, Phencyclidine radioligand binding (ligand: [3H] TCP); format: cell membranes, Rattus norvegicus, Wistar, Cerebral cortex, Membrane; settings: Not Active = under 50% inhibition at 10 µM
Glucocorticoid receptor = biological target: T2, Glucocorticoid receptor (Homo sapiens, UniProt P04150); settings: hela s3; also: in other assays of this panel Not Active means under 50% inhibition at 10 µM
T2 sequence (P04150 whole entry): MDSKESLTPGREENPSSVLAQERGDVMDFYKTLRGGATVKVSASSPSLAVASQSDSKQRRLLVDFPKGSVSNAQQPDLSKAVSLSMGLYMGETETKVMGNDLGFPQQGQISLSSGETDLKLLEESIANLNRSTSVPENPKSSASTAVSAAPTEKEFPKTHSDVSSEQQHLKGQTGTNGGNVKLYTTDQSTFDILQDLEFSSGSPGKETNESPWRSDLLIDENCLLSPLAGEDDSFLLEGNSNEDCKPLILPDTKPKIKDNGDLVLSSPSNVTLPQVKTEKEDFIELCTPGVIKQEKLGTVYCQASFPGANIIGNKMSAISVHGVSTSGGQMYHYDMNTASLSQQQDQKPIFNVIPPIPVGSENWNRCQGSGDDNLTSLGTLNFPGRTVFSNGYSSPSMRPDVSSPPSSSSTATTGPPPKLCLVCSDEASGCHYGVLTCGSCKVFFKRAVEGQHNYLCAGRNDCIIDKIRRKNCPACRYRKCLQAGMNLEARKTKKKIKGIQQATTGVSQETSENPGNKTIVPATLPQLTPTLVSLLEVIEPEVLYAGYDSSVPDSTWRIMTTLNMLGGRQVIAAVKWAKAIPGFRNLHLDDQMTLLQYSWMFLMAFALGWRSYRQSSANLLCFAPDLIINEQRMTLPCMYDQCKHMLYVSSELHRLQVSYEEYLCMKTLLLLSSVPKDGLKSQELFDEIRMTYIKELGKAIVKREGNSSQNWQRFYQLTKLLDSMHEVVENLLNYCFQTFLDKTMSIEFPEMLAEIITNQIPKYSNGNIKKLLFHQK

Sequence of Kappa-type opioid receptor (P41145 whole entry): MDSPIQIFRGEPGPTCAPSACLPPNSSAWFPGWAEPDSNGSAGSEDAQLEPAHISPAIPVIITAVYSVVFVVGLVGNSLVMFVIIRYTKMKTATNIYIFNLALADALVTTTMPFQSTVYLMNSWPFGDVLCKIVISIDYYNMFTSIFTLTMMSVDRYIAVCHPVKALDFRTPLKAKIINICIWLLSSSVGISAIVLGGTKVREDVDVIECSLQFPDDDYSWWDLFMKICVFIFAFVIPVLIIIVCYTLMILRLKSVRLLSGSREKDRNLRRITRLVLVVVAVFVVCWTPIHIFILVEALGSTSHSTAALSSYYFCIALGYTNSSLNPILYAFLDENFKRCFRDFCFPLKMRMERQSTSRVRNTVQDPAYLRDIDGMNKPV

| Molecule | IC50 ([1]; hek293) | IC50 [2] | IC50 [3] | Ki [3] | IC50 [4] | Ki [4] | IC50 [5] | Ki [5] | IC50 (Thromboxane-A synthase; platelet) | IC50 [6] | Ki [6] | Ki [2] | IC50 (Glucocorticoid receptor) | Ki (Glucocorticoid receptor) | Ki (Thromboxane-A synthase; platelet) | IC50 (Thromboxane-A synthase; read-out: IC50) | Ki [1] | IC50 ([1]; read-out: IC50) |
| --- | --- | --- | --- | --- | --- | --- | --- | --- | --- | --- | --- | --- | --- | --- | --- | --- | --- | --- |
| CCS(=O)(=O)CCn1c([N+](=O)[O-])cnc1C [TINIDAZOLE] | Not Active | Not Active | Not Active | Not Active | Not Active | Not Active | Not Active | Not Active | Not Active | Not Active | Not Active |  |  |  |  |  |  |  |
| CC(=O)O[C@H]1C[C@@H]2CC[C@@H]3[C@H](CC[C@@]4(C)[C@H]3C[C@H]([N+]3(C)CCCCC3)[C@@H]4OC(C)=O)[C@@]2(C)C[C@@H]1N1CCCCC1.[Br-] [VECURONIUM BROMIDE] | Not Active | Not Active | Not Active | Not Active | Not Active | Not Active | Not Active | Not Active | Not Active | Not Active | Not Active |  |  |  |  |  |  |  |
| CN1C2CCCC1CC(NC(=O)c1nn(C)c3ccccc13)C2 (configuration not stated) [GRANISETRON] | Not Active | Not Active |  |  |  |  |  |  | Not Active |  |  |  |  |  |  |  |  |  |
| THIMEROSAL |  | Not Active | Not Active | Not Active | Not Active | Not Active | Not Active | Not Active | Not Active | Not Active | Not Active | Not Active | Not Active | Not Active | Not Active |  |  |  |
| C[C@]12CC[C@H]3[C@@H](CCC4=CC(=O)CC[C@@]43C)[C@@H]1CC[C@@H]2O [TESTOSTERONE] | Not Active | Not Active | Not Active | Not Active | Not Active | Not Active |  |  | Not Active | Not Active | Not Active |  |  |  |  |  |  |  |
| CO[C@H]1C[C@@H]2CC[C@@H](C)[C@@](O)(O2)C(=O)C(=O)N2CCCC[C@H]2C(=O)O[C@H]([C@H](C)C[C@@H]2CC[C@@H](O)[C@H](OC)C2)CC(=O)[C@H](C)/C=C(\C)[C@@H](O)[C@@H](OC)C(=O)[C@H](C)C[C@H](C)/C=C/C=C/C=C/1C [SIROLIMUS] | Not Active | Not Active | Not Active | Not Active | Not Active | Not Active | Not Active | Not Active | Not Active | Not Active | Not Active |  |  |  |  |  |  |  |
| CC(C)OC(=O)C(C)(C)Oc1ccc(C(=O)c2ccc(Cl)cc2)cc1 [FENOFIBRATE] | Not Active | Not Active |  |  |  |  |  |  | Not Active |  |  |  | Not Active |  |  |  |  |  |
| CN(CCOc1ccc(CC2SC(=O)NC2=O)cc1)c1ccccn1 (configuration not stated) [ROSIGLITAZONE] | Not Active | Not Active | Not Active | Not Active | Not Active | Not Active | Not Active | Not Active |  | Not Active | Not Active |  |  |  |  | 3.56 µM |  |  |
| C=C(C)[C@H]1Cc2c(ccc3c2O[C@@H]2COc4cc(OC)c(OC)cc4[C@@H]2C3=O)O1 [ROTENONE] |  | Not Active | Not Active | Not Active | Not Active | Not Active | Not Active | Not Active | Not Active | Not Active | Not Active |  | Not Active |  |  |  |  |  |
| OCCN1CCN(CCCN2c3ccccc3Sc3ccc(C(F)(F)F)cc32)CC1 [FLUPHENAZINE] |  | Not Active |  |  |  |  |  |  | Not Active |  |  |  | Not Active |  |  |  | 9.89 µM | 24.7 µM |
| CC[C@@H](CO)NC(=O)[C@@H]1C=C2c3cccc4c3c(cn4C)C[C@H]2N(C)C1 [METHYSERGIDE] | Not Active | Not Active |  |  |  |  |  |  | Not Active |  |  |  |  |  |  |  |  |  |
| CC(=O)Nc1nnc(S(N)(=O)=O)s1 [ACETAZOLAMIDE] | Not Active | Not Active |  |  |  |  |  |  | Not Active |  |  |  | Not Active |  |  |  |  |  |
| CCN(CC)CC#CCOC(=O)C(O)(c1ccccc1)C1CCCCC1 (configuration not stated) [OXYBUTYNIN] | Not Active | Not Active |  |  |  |  |  |  | Not Active |  |  |  | Not Active |  |  |  |  |  |
| CC(C)(C)NC[C@H](O)COc1nsnc1N1CCOCC1 [TIMOLOL] | Not Active |  | Not Active | Not Active | Not Active | Not Active | Not Active | Not Active | Not Active | Not Active | Not Active |  | Not Active |  |  |  |  |  |
| O=c1[nH]c2ccccc2n1CCCN1CCC(n2c(=O)[nH]c3cc(Cl)ccc32)CC1 [DOMPERIDONE] |  | Not Active |  |  |  |  |  |  | Not Active |  |  |  | Not Active |  |  |  |  |  |
| O=c1n(CCCN2CCN(c3cccc(Cl)c3)CC2)nc2ccccn12 [TRAZODONE] | Not Active | Not Active |  |  |  |  |  |  | Not Active |  |  |  |  |  |  |  |  |  |
| CCOC(N)=O | Not Active | Not Active | Not Active | Not Active | Not Active | Not Active | Not Active | Not Active | Not Active | Not Active | Not Active |  |  |  |  |  |  |  |
| Nc1ccc(S(=O)(=O)Nc2ncccn2)cc1 [SULFADIAZINE] | Not Active | Not Active | Not Active | Not Active | Not Active | Not Active | Not Active | Not Active | Not Active | Not Active | Not Active |  |  |  |  |  |  |  |
| COc1ncnc(NS(=O)(=O)c2ccc(N)cc2)c1OC [SULFADOXINE] | Not Active | Not Active | Not Active | Not Active | Not Active | Not Active | Not Active | Not Active | Not Active | Not Active | Not Active |  |  |  |  |  |  |  |
| STANNOUS FLUORIDE |  | Not Active | Not Active | Not Active | Not Active | Not Active | Not Active | Not Active | Not Active | Not Active | Not Active | Not Active | Not Active | Not Active | Not Active |  |  |  |
| CC1=C(CC(=O)O)c2cc(F)ccc2/C1=C\c1ccc(S(C)(=O)=O)cc1 [EXISULIND] | Not Active | Not Active | Not Active | Not Active | Not Active | Not Active | Not Active | Not Active | Not Active | Not Active | Not Active |  |  |  |  |  |  |  |
| NC[C@H]1O[C@H](O[C@H]2[C@H](O)[C@@H](O[C@H]3O[C@H](CO)[C@@H](O)[C@H](N)[C@H]3O)[C@H](N)C[C@@H]2N)[C@H](N)C[C@@H]1O [TOBRAMYCIN] | Not Active | Not Active | Not Active | Not Active | Not Active | Not Active | Not Active | Not Active | Not Active | Not Active | Not Active |  |  |  |  |  |  |  |
| O=C(O)C(Cl)(Cl)Cl [TRICHLOROACETIC ACID] |  | Not Active | Not Active | Not Active | Not Active | Not Active | Not Active | Not Active | Not Active | Not Active | Not Active |  |  |  |  |  |  |  |
